SMILES strings stand for the structures.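 The compound was tested at five concentrations on cells cultured in 96-well plates, with a 48-hour exposure period. GI50 marks 50% less growth. TGI: total growth inhibition.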

In PubChem BioAssay (NCI) one finds GI50 and TGI data, which are given here for 15 compounds.

Test systems include EKVX NSCLC; M14 melanoma; HCC-2998 colon; IGROV1 ovarian; SNB-75 CNS; NCI-H522 lung; 786-0 renal; NCI-H460 lung.
What all share (test): NCI tumour cell line growth inhibition, 48 h

As to `O=S(=O)(NCCCNc1cc(-c2cn(-c3ccccc3)nc2-c2cccc(O)c2)ccn1)c1ccc(F)cc1`, the GI50 is 3.92 µM with EKVX NSCLC; 2.85 µM in the test with M14 melanoma; 2.2 µM in the test with HCC-2998 colon; 4.29 µM in the test on IGROV1 ovarian; 3.47 µM in the test on SNB-75 CNS; 2.29 µM in the test on NCI-H522 lung. The GI50 in the test on 786-0 renal was 2.35 µM; in the test on NCI-H460 lung it was 3.64 µM. The TGI is 64.4 µM in the test on EKVX NSCLC; 8.75 µM in the test on M14 melanoma; 4.52 µM in the test with HCC-2998 colon; 33.5 µM with IGROV1 ovarian; 16 µM in the test on SNB-75 CNS; 7.44 µM with NCI-H522 lung. The TGI with 786-0 renal turned out to be 6.23 µM; in the test on NCI-H460 lung, 13.9 µM.

On to `NCc1ccc(-c2nc(-c3ccc(Cl)c(O)c3)c(-c3ccncc3)[nH]2)cc1`, for which the GI50 is over 25 µM in the test with EKVX NSCLC; 5.47 µM in the test with M14 melanoma; over 25 µM with HCC-2998 colon; over 25 µM in the test with IGROV1 ovarian; 4.1 µM in the test with SNB-75 CNS; over 25 µM in the test on NCI-H522 lung. Also, the GI50 in the test on 786-0 renal and with NCI-H460 lung was over 25 µM throughout. The TGI in the test with EKVX NSCLC is over 25 µM; in the test on M14 melanoma, 24.7 µM; in the test with HCC-2998 colon it was over 25 µM; with IGROV1 ovarian, over 25 µM; in the test on SNB-75 CNS, over 20 µM; in the test on NCI-H522 lung, over 25 µM. Further, the TGI with 786-0 renal and in the test on NCI-H460 lung was over 25 µM in each case.

`COc1ccc(C2CC(c3ccc(N(C)C)cc3)=NN2c2ccc(S(N)(=O)=O)cc2)cc1` (centres undefined): the GI50 is 3.79 µM in the test on EKVX NSCLC; 4.42 µM in the test with M14 melanoma; 2.99 µM with HCC-2998 colon; 4.31 µM in the test with IGROV1 ovarian; 5.42 µM in the test with SNB-75 CNS; 2.69 µM in the test with NCI-H522 lung. For the same compound, the GI50 in the test on 786-0 renal is 3.79 µM; in the test with NCI-H460 lung, 2.44 µM. Moreover, the TGI with EKVX NSCLC was over 100 µM; in the test on M14 melanoma it was over 100 µM; with HCC-2998 colon, 12.4 µM; with IGROV1 ovarian, over 100 µM; in the test with SNB-75 CNS it was over 100 µM; with NCI-H522 lung, 6.69 µM. For the same compound, the TGI in the test on 786-0 renal worked out at 20.6 µM; in the test on NCI-H460 lung it was 5.53 µM.

`O=C1/C(=C/c2ccccc2[N+](=O)[O-])COc2ccc(O)cc21`: the GI50 in the test with EKVX NSCLC is 3.22 µM; in the test with M14 melanoma, 1.9 µM; with HCC-2998 colon it was 1.51 µM; in the test with IGROV1 ovarian, 0.529 µM; in the test with SNB-75 CNS, 2.76 µM; in the test on NCI-H522 lung, 0.684 µM. The GI50 is 1.72 µM in the test on 786-0 renal and 2.1 µM in the test with NCI-H460 lung. The TGI stood at 14.5 µM with EKVX NSCLC; 4.85 µM in the test on M14 melanoma; 2.94 µM with HCC-2998 colon; 2.08 µM with IGROV1 ovarian; 19.6 µM in the test with SNB-75 CNS; 3.65 µM in the test with NCI-H522 lung. Further, the TGI in the test on 786-0 renal turned out to be 10 µM; in the test on NCI-H460 lung, 5.04 µM.

As for `Cc1cc(O)c2c3c(ccc2c1)C(=O)c1c(O)cccc1C3=O`, the TGI was over 100 µM in the test with EKVX NSCLC; over 26.2 µM in the test with M14 melanoma; over 100 µM in the test with HCC-2998 colon; over 20.3 µM with IGROV1 ovarian; over 74.7 µM in the test with SNB-75 CNS; over 32.3 µM in the test with NCI-H522 lung. Moreover, the TGI in the test with 786-0 renal is over 100 µM; in the test on NCI-H460 lung, over 27 µM.

On to `Nc1nc(-c2ccc(Cl)cc2)nc2c1sc(=S)n2-c1ccccc1`, for which the GI50 was 2.75 µM in the test with EKVX NSCLC; 7.87 µM in the test with M14 melanoma; 7.52 µM in the test with HCC-2998 colon; 3.3 µM in the test on IGROV1 ovarian; 1.73 µM in the test with SNB-75 CNS; 5.64 µM in the test with NCI-H522 lung. In addition, the GI50 in the test on 786-0 renal was 1.84 µM; in the test on NCI-H460 lung it was 3.31 µM. For the same compound, the TGI in the test on EKVX NSCLC was 14.7 µM; in the test with M14 melanoma, 38.1 µM; in the test on HCC-2998 colon it was 50.2 µM; in the test on IGROV1 ovarian, 17 µM; with SNB-75 CNS, 3.72 µM; in the test on NCI-H522 lung it was over 100 µM. Besides, the TGI in the test on 786-0 renal came to 3.62 µM; with NCI-H460 lung it was 10.2 µM.

On to `N#Cc1cccc(Nc2ncc(-c3ccccc3)o2)c1`, for which the GI50 in the test with EKVX NSCLC was 11 µM; in the test on M14 melanoma, over 25 µM; with HCC-2998 colon, over 23.7 µM; in the test with IGROV1 ovarian it was 11.7 µM; in the test with SNB-75 CNS, 10.8 µM; in the test on NCI-H522 lung, 19.2 µM. Moreover, the GI50 with 786-0 renal is 12.9 µM; in the test on NCI-H460 lung, 11.3 µM. Also, the TGI is over 25 µM in the test with EKVX NSCLC; over 25 µM in the test with M14 melanoma; over 25 µM in the test on HCC-2998 colon; over 25 µM in the test on IGROV1 ovarian; over 22.6 µM in the test with SNB-75 CNS; over 25 µM in the test on NCI-H522 lung. Besides, the TGI in the test with 786-0 renal and in the test on NCI-H460 lung was over 25 µM in each case.

With `O=S(=O)(O)c1ccc2cc3nn(-c4ccc(/C=C/c5ccc(-n6nc7cc8ccc(S(=O)(=O)O)cc8cc7n6)cc5S(=O)(=O)O)c(S(=O)(=O)O)c4)nc3cc2c1`, the GI50 is 95.2 µM in the test on EKVX NSCLC; 44.5 µM in the test on M14 melanoma; 73.8 µM in the test with HCC-2998 colon; 27 µM in the test with IGROV1 ovarian; over 100 µM with SNB-75 CNS; 78.4 µM with NCI-H522 lung. Moreover, the figures for the GI50 in the test on 786-0 renal and with NCI-H460 lung were over 100 µM and 50.9 µM, respectively. Also, the TGI in the test on EKVX NSCLC, in the test with M14 melanoma, in the test on HCC-2998 colon, in the test with IGROV1 ovarian, in the test on SNB-75 CNS and in the test with NCI-H522 lung was over 100 µM throughout. Moreover, the TGI in the test on 786-0 renal and in the test on NCI-H460 lung was over 100 µM in each case.

As to `Clc1nc(Cl)c2ncn(CCOCCn3cnc4c(Cl)nc(Cl)nc43)c2n1`, the GI50 with EKVX NSCLC was 1.31 µM; with M14 melanoma it was 0.287 µM; in the test with HCC-2998 colon, 0.213 µM; in the test on IGROV1 ovarian, 0.207 µM; in the test with SNB-75 CNS, 0.181 µM; in the test on NCI-H522 lung it was 0.684 µM. Also, the GI50 in the test with 786-0 renal is 0.325 µM; with NCI-H460 lung, 0.217 µM. The TGI was 2.77 µM with EKVX NSCLC; 0.817 µM with M14 melanoma; 0.382 µM in the test on HCC-2998 colon; 0.408 µM in the test with IGROV1 ovarian; 0.342 µM in the test with SNB-75 CNS; 2.22 µM with NCI-H522 lung. Further, the TGI in the test with 786-0 renal was 0.935 µM; in the test with NCI-H460 lung it was 0.463 µM.

For `COCCOCCOCCOCCOC(=O)OC[n+]1ccc(NC(=NCCCCCCOc2ccc(Cl)cc2)NC#N)cc1`, the GI50 in the test with EKVX NSCLC was 3.93 µM; in the test on M14 melanoma it was 0.0409 µM; with HCC-2998 colon, 0.564 µM; with IGROV1 ovarian, 0.465 µM; with SNB-75 CNS it was 14.1 µM; in the test with 786-0 renal, 10.3 µM. Also, the GI50 in the test with NCI-H460 lung was 0.124 µM. For the same compound, the TGI with EKVX NSCLC is 14.9 µM; in the test on M14 melanoma, 14.7 µM; in the test on HCC-2998 colon, 20.5 µM; in the test on IGROV1 ovarian, 24.7 µM; in the test on SNB-75 CNS, 27.9 µM; with NCI-H522 lung, 18.7 µM. Further, the figures for the TGI in the test on 786-0 renal and in the test on NCI-H460 lung were 22.9 µM and 19.2 µM, respectively.

With `[Cl][Cu][Cl]`, the GI50 in the test with EKVX NSCLC, with M14 melanoma, with HCC-2998 colon, in the test on IGROV1 ovarian, in the test with SNB-75 CNS and in the test with NCI-H522 lung was over 10 µM each time. The GI50 in the test with 786-0 renal and in the test with NCI-H460 lung was over 10 µM throughout. Besides, the TGI in the test on EKVX NSCLC, in the test with M14 melanoma, in the test with HCC-2998 colon, with IGROV1 ovarian, with SNB-75 CNS and in the test with NCI-H522 lung was over 10 µM each time. Moreover, the TGI in the test with 786-0 renal and in the test with NCI-H460 lung was over 10 µM in each case.

On to `O=C1C(Sc2ccc3ccccc3c2)=C(Sc2ccc3ccccc3c2)C(=O)c2ccccc21`, for which the TGI was 23.8 µM in the test on EKVX NSCLC; 23.7 µM in the test on M14 melanoma; 19.6 µM in the test with HCC-2998 colon; 28.7 µM in the test with SNB-75 CNS; 10.6 µM in the test on NCI-H522 lung; 25.3 µM with 786-0 renal. In the test with NCI-H460 lung, this compound registered a TGI of over 100 µM.

As to `C[C@H]1CN(C2COC2)CCN1c1ccc(Nc2cc(-c3ccnc(N4CCn5c(cc6c5CC(C)(C)C6)C4=O)c3CO)cn(C)c2=O)nc1`, the GI50 is over 100 µM in the test on EKVX NSCLC; 49.9 µM in the test on HCC-2998 colon; 19.7 µM in the test with IGROV1 ovarian; 15.5 µM in the test with SNB-75 CNS; 56.3 µM with NCI-H522 lung; 19.5 µM in the test with 786-0 renal. In the test on NCI-H460 lung, the GI50 is 61.1 µM. Moreover, the TGI with EKVX NSCLC, in the test on HCC-2998 colon, in the test with IGROV1 ovarian, in the test on SNB-75 CNS, in the test with NCI-H522 lung and in the test with 786-0 renal was over 100 µM each time. Further, the TGI in the test on NCI-H460 lung was over 100 µM.

For the compound `CSC1=Nc2c(c(C)c(-c3ccccc3)n2COC(CO)CO)C2=NC(=O)CN12`, the GI50 in the test on EKVX NSCLC was over 100 µM; in the test with HCC-2998 colon, over 100 µM; in the test on IGROV1 ovarian, 0.421 µM; in the test with SNB-75 CNS it was 58.9 µM; with NCI-H522 lung it was over 100 µM; in the test on 786-0 renal, over 100 µM. Besides, the GI50 with NCI-H460 lung was over 100 µM. The TGI in the test with EKVX NSCLC was over 100 µM; with HCC-2998 colon it was over 100 µM; with IGROV1 ovarian it was 42.8 µM; in the test with SNB-75 CNS, over 100 µM; with NCI-H522 lung it was over 100 µM; in the test on 786-0 renal, over 100 µM. Also, the TGI with NCI-H460 lung was over 100 µM.

As for `C/C(=N\NC(=O)C(N)=O)c1c(O)cc(C)oc1=O`, the TGI in the test with EKVX NSCLC, with M14 melanoma, in the test on HCC-2998 colon, in the test with IGROV1 ovarian, in the test on SNB-75 CNS and in the test on 786-0 renal was over 100 µM throughout. The compound also gave a TGI with NCI-H460 lung of over 100 µM.
